In ChEMBL document CHEMBL2040817, “Fragment-based discovery of hydroxy-indazole-carboxamides as novel small molecule inhibitors of Hsp90” (Bioorg Med Chem Lett, 2012) one finds IC50 data, which are given here for 61 compounds.

The target in test [1] is T1, Heat shock protein HSP 90-beta (Homo sapiens, UniProt P08238). The experiment in a line: Displacement of [3H]17AAG from human recombinant Hsp90 after 30 mins by beta scintillation counting.
In test [2] the test system is A2780. The experiment in a line: Antiproliferative activity against human A2780 cells after 72 hrs by alamar blue assay. It is filed as functional, cell-based. The settings on record: A2780, 72 h. Background: Resazurin is reduced to fluorescent resorufin, in cell work by metabolically active cells.
Test [3] has as its system PC-3. The experiment in a line: Antiproliferative activity against human PC3 cells after 72 hrs by alamar blue assay. Particulars: PC-3, 72 h. It is filed as functional, cell-based.
Test [4] relates to MCF7. The experiment in a line: Antiproliferative activity against human MCF7 cells after 72 hrs by alamar blue assay. The settings on record: MCF7, 72 h. It is filed as functional, cell-based.
The subject of test [5] is COLO 205. The experiment in a line: Antiproliferative activity against human COLO205 cells after 72 hrs by alamar blue assay. It is filed as functional, cell-based. The settings on record: COLO 205, 72 h.
Test [6] concerns the target T1, Heat shock protein HSP 90-beta. The experiment in a line: Inhibition of Hsp90 in human A2780 cells assessed as Hsp70 upregulation after 24 hrs by immunostaining method. It is filed as cell-based.

T1 sequence (P08238 whole entry): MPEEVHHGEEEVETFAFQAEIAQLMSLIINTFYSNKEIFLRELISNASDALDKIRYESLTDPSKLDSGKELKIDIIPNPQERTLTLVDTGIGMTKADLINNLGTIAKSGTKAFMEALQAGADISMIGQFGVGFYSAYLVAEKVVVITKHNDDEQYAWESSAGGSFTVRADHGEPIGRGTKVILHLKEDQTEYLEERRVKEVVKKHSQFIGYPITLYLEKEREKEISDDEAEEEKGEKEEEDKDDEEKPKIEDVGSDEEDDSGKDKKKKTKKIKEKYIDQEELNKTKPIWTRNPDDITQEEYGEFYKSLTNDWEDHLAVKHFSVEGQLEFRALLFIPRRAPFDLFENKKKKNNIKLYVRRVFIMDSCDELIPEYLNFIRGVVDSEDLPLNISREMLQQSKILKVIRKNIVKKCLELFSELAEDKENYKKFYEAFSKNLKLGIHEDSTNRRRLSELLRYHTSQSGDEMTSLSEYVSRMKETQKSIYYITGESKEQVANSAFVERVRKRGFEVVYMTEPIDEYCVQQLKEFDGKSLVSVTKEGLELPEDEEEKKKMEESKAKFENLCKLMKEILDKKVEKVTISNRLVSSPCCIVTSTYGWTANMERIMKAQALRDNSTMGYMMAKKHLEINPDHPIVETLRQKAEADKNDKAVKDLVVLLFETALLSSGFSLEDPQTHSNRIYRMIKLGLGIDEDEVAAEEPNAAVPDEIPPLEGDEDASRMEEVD

The term IC50 denotes the point on the concentration scale where inhibition reaches its midpoint. Consider `COc1ccc(CN(C)C(=O)c2cc3c(Cc4cccc(C)c4)n[nH]c3cc2O)cc1OC`, for which the IC50 came out at 580 nM in test [1] and 3700 nM in test [2].

In the case of `COc1cc2[nH]nc(Cc3cccc(C)c3)c2cc1C(=O)N(C)Cc1ccccc1`, the IC50 in test [1] was greater than 20000 nM.

With `Cc1cccc(Cc2n[nH]c3cc(O)c(C(=O)N(C)Cc4ccccc4Br)cc23)c1`, the IC50 in test [1] amounted to 780 nM; in test [2], 310 nM.

As for `Cc1cccc(Cc2n[nH]c3cc(O)c(C(=O)N(C)Cc4cccc(F)c4)cc23)c1`, the IC50 was 370 nM in test [1] and 440 nM in test [2].

In the case of `Cc1cccc(Cc2n[nH]c3cc(O)c(C(=O)N(C)Cc4ccc(F)cc4)cc23)c1`, the values for the IC50 in test [1] and in test [2] were 580 nM and 590 nM, respectively.

Regarding `COc1ccc(CN(C)C(=O)c2cc3c(Cc4cccc(C)c4)n[nH]c3cc2O)cc1`, the values for the IC50 in test [1] and in test [2] were 460 nM and 540 nM, respectively.

With `Cc1cccc(Cc2n[nH]c3cc(O)c(C(=O)N(C)Cc4ccc(Cl)c(F)c4)cc23)c1`, the IC50 in test [1] was 170 nM; in test [2] it was 930 nM.

Consider `COc1cc(CN(C)C(=O)c2cc3c(Cc4cccc(C)c4)n[nH]c3cc2O)ccc1Cl`, for which the results for the IC50 in test [1] and in test [2] were 680 nM and 1600 nM, respectively.

As to `Cc1cccc(Cc2n[nH]c3cc(O)c(C(=O)N(C)Cc4ccc(F)c(F)c4)cc23)c1`, the IC50 in test [1] stood at 500 nM; in test [2], 530 nM.

`Cc1cccc(Cc2n[nH]c3cc(O)c(C(=O)N(C)Cc4cccc(NS(C)(=O)=O)c4)cc23)c1`: the half-maximal inhibitory concentration (IC50) in test [1] worked out at 200 nM; in test [2], 4000 nM.

`Cc1cccc(Cc2n[nH]c3cc(O)c(C(=O)N(C)Cc4ccc(NS(C)(=O)=O)cc4)cc23)c1`: the IC50 in test [1] stood at 350 nM; in test [2] it was 1600 nM.

For the compound `Cc1cccc(Cc2n[nH]c3cc(O)c(C(=O)N(C)Cc4ccc(CNS(C)(=O)=O)cc4)cc23)c1`, the 50% inhibitory concentration (IC50) in test [1] was 150 nM; in test [2], 710 nM; in test [3], greater than 10000 nM; in test [4] it was 4700 nM; in test [5] it was 3700 nM; in test [6] it was 1100 nM.

Turning to `CN(Cc1ccc(F)cc1)C(=O)c1cc2c(Cc3ccccc3)n[nH]c2cc1O`, the 50% inhibitory concentration (IC50) in test [1] came out at 1100 nM; in test [2] it was 4100 nM.

For the compound `CN(Cc1ccc(Cl)cc1)C(=O)c1cc2c(Cc3ccccc3)n[nH]c2cc1O`, the results for the IC50 in test [1] and in test [2] were 330 nM and 2600 nM, respectively.

Turning to `CN(Cc1ccc(Br)cc1)C(=O)c1cc2c(Cc3ccccc3)n[nH]c2cc1O`, the IC50 was 1100 nM in test [1] and 2800 nM in test [2].

`Cc1ccc(CN(C)C(=O)c2cc3c(Cc4ccccc4)n[nH]c3cc2O)cc1`: the IC50 in test [1] amounted to 630 nM; in test [2], 6900 nM.

For `CCc1ccc(CN(C)C(=O)c2cc3c(Cc4ccccc4)n[nH]c3cc2O)cc1`, the IC50 in test [1] was 390 nM; in test [2], 9400 nM.

As for `CCOc1ccc(CN(C)C(=O)c2cc3c(Cc4ccccc4)n[nH]c3cc2O)cc1`, the values for the IC50 in test [1] and in test [2] were 760 nM and 3200 nM, respectively.

For `COc1cccc(CN(C)C(=O)c2cc3c(Cc4ccccc4)n[nH]c3cc2O)c1OC`, the IC50 came to 470 nM in test [1] and 4800 nM in test [2].

As for `COc1cc(CN(C)C(=O)c2cc3c(Cc4ccccc4)n[nH]c3cc2O)ccc1Cl`, the figures for the IC50 in test [1] and in test [2] were 2300 nM and 4100 nM, respectively.

With `CN(Cc1ccc(Cl)c(F)c1)C(=O)c1cc2c(Cc3ccccc3)n[nH]c2cc1O`, the values for the IC50 in test [1] and in test [2] were 980 nM and greater than 10000 nM, respectively.

On to `CN(Cc1ccccc1)C(=O)c1cc2c(Cc3ccccc3Cl)n[nH]c2cc1O`, for which, in test [1], the IC50 stood at 2600 nM.

On to `Cc1ccccc1Cc1n[nH]c2cc(O)c(C(=O)N(C)Cc3ccccc3)cc12`, for which the IC50 in test [1] was 2400 nM.

For `CN(Cc1ccccc1)C(=O)c1cc2c(Cc3cccc(F)c3)n[nH]c2cc1O`, the figures for the 50% inhibitory concentration (IC50) in test [1] and in test [2] were 1300 nM and 1700 nM, respectively.

In the case of `CN(Cc1ccccc1)C(=O)c1cc2c(Cc3cccc(Cl)c3)n[nH]c2cc1O`, the IC50 stood at 400 nM in test [1] and 410 nM in test [2].

Turning to `Cc1cccc(Cc2n[nH]c3cc(O)c(C(=O)NCc4ccccc4)cc23)c1`, the IC50 in test [1] was 1500 nM; in test [2], greater than 10000 nM.

Turning to `Cc1cccc(Cc2n[nH]c3cc(O)c(C(=O)N(C)Cc4ccccc4)cc23)c1`, half-maximal inhibition in test [2] (IC50) was put at 490 nM.

For `CCN(Cc1ccccc1)C(=O)c1cc2c(Cc3cccc(C)c3)n[nH]c2cc1O`, the IC50 in test [1] was determined as 3000 nM.

For the compound `COc1cccc(Cc2n[nH]c3cc(O)c(C(=O)N(C)Cc4ccccc4)cc23)c1`, in test [1], the IC50 is 1400 nM.

For `CCc1cccc(Cc2n[nH]c3cc(O)c(C(=O)N(C)Cc4ccccc4)cc23)c1`, the IC50 in test [1] came out at 1300 nM.

On to `CN(Cc1ccccc1)C(=O)c1cc2c(Cc3ccc(Cl)cc3)n[nH]c2cc1O`, for which the IC50 in test [1] turned out to be 5700 nM.

`Cc1ccc(Cc2n[nH]c3cc(O)c(C(=O)N(C)Cc4ccccc4)cc23)cc1`: the IC50 in test [1] is 1300 nM; in test [2] it was greater than 10000 nM.

Regarding `CCc1ccc(Cc2n[nH]c3cc(O)c(C(=O)N(C)Cc4ccccc4)cc23)cc1`, the IC50 in test [1] was 2500 nM; in test [2] it was greater than 10000 nM.

As for `CN(Cc1ccccc1Br)C(=O)c1cc2c(Cc3cccc(Cl)c3)n[nH]c2cc1O`, the IC50 came to 590 nM in test [1] and 130 nM in test [2].

For `CN(Cc1cccc(F)c1)C(=O)c1cc2c(Cc3cccc(Cl)c3)n[nH]c2cc1O`, the IC50 in test [1] was found to be 710 nM; in test [2], 440 nM.

With `CN(Cc1ccc(F)cc1)C(=O)c1cc2c(Cc3cccc(Cl)c3)n[nH]c2cc1O`, the values for the IC50 in test [1] and in test [2] were 800 nM and 410 nM, respectively.

For `COc1ccc(CN(C)C(=O)c2cc3c(Cc4cccc(Cl)c4)n[nH]c3cc2O)cc1`, the results for the IC50 in test [1] and in test [2] were 800 nM and 390 nM, respectively.

In the case of `COc1ccc(CN(C)C(=O)c2cc3c(Cc4cccc(Cl)c4)n[nH]c3cc2O)cc1OC`, the IC50 in test [1] amounted to 730 nM; in test [2], 2400 nM.

In the case of `CN(Cc1cccc(NS(C)(=O)=O)c1)C(=O)c1cc2c(Cc3cccc(Cl)c3)n[nH]c2cc1O`, the IC50 was determined as 410 nM in test [1] and 3200 nM in test [2].

As for `CN(Cc1ccc(CNS(C)(=O)=O)cc1)C(=O)c1cc2c(Cc3cccc(Cl)c3)n[nH]c2cc1O`, the IC50 in test [1] was determined as 60 nM; in test [2], 570 nM; in test [3], 4300 nM; in test [4] it was 3500 nM; in test [5] it was 9500 nM; in test [6], 1000 nM.

For the compound `Oc1ccc2c(C3CCCC3)n[nH]c2c1`, the IC50 in test [1] turned out to be 87000 nM.

As for `Cc1ccc(-c2nc(N)nc3ccc(Cl)cc23)cc1`, the IC50 in test [1] was 900 nM.

`Nc1nc(Cl)cc(Cc2ccc(Cl)cc2)n1`: the IC50 in test [1] was found to be 21000 nM.

`NC(=O)c1cc2c(Cc3ccccc3)n[nH]c2cc1O`: the IC50 in test [1] is 61000 nM.

For `CCCN(C)C(=O)c1cc2c(Cc3ccccc3)n[nH]c2cc1O`, the figures for the IC50 in test [1] and in test [2] were 1900 nM and greater than 10000 nM, respectively.

Turning to `CCCCN(C)C(=O)c1cc2c(Cc3ccccc3)n[nH]c2cc1O`, the IC50 in test [1] amounted to 1800 nM; in test [2], 7600 nM.

In the case of `COCCN(C)C(=O)c1cc2c(Cc3ccccc3)n[nH]c2cc1O`, in test [1], the IC50 stood at 4000 nM.

On to `CN(Cc1ccccc1)C(=O)c1cc2c(Cc3ccccc3)n[nH]c2cc1O`, for which the IC50 was 660 nM in test [1] and 980 nM in test [2].

Take `CN(C(=O)c1cc2c(Cc3ccccc3)n[nH]c2cc1O)c1ccco1`: the IC50 came out at 610 nM in test [1] and 2500 nM in test [2].

With `CN(Cc1ccccc1)C(=O)c1cc2c(CCc3ccccc3)n[nH]c2cc1O`, the values for the IC50 in test [1] and in test [2] were 230 nM and 4600 nM, respectively.

Consider `CN(Cc1ccccc1F)C(=O)c1cc2c(Cc3ccccc3)n[nH]c2cc1O`, for which the IC50 stood at 900 nM in test [1] and 1500 nM in test [2].

As to `CN(Cc1ccccc1Cl)C(=O)c1cc2c(Cc3ccccc3)n[nH]c2cc1O`, the IC50 in test [1] and in test [2] was 1100 nM throughout.

Regarding `CN(Cc1ccccc1Br)C(=O)c1cc2c(Cc3ccccc3)n[nH]c2cc1O`, the IC50 in test [1] worked out at 610 nM; in test [2] it was 1200 nM.

As for `Cc1ccccc1CN(C)C(=O)c1cc2c(Cc3ccccc3)n[nH]c2cc1O`, the IC50 came out at 740 nM in test [1] and 4400 nM in test [2].

For `COc1ccccc1CN(C)C(=O)c1cc2c(Cc3ccccc3)n[nH]c2cc1O`, the results for the IC50 in test [1] and in test [2] were 1700 nM and 5400 nM, respectively.

In the case of `CN(Cc1cccc(F)c1)C(=O)c1cc2c(Cc3ccccc3)n[nH]c2cc1O`, the figures for the IC50 in test [1] and in test [2] were 570 nM and 5000 nM, respectively.

Consider `CN(Cc1cccc(Cl)c1)C(=O)c1cc2c(Cc3ccccc3)n[nH]c2cc1O`, for which the IC50 in test [1] was found to be 1500 nM; in test [2] it was 5300 nM.

As to `CN(Cc1cccc(Br)c1)C(=O)c1cc2c(Cc3ccccc3)n[nH]c2cc1O`, the IC50 in test [1] was 1300 nM; in test [2], 7100 nM.

In the case of `Cc1cccc(CN(C)C(=O)c2cc3c(Cc4ccccc4)n[nH]c3cc2O)c1`, in test [1], the IC50 was found to be 3600 nM.

On to `COc1cccc(CN(C)C(=O)c2cc3c(Cc4ccccc4)n[nH]c3cc2O)c1`, for which the IC50 in test [1] was found to be 980 nM; in test [2] it was 3800 nM.

With `CN(Cc1cccc(C(F)(F)F)c1)C(=O)c1cc2c(Cc3ccccc3)n[nH]c2cc1O`, the IC50 in test [1] was determined as 3400 nM.
